# Like-named read-outs stand apart in the source and are kept apart here. Peptide text beside a SMILES is read from it. * marks the point of attachment. Hexanoyl(6-maleimido) = O=C1C=CC(=O)N1CCCCCC(=O)*; X41 = O=C1C=CC(=O)N1c1ccc(CCCCCCCCCCCCC(=O)*)cc1; X14 = O=C1C=CC(=O)N1CCOCCOCCOCCOCCOCCCCCCC(=O)*; X29 = O=C1C=CC(=O)N1CCOCCOCCOCCOCCOCCOCCCC(=O)*; X9 = O=C1C=CC(=O)N1CCOCCOCCOCCOCCOCCCCCCCC(=O)*; X39 = O=C1C=CC(=O)N1c1ccc(CCCCCCCCCCC(=O)*)cc1; X28 = O=C1C=CC(=O)N1CCOCCOCCOCCCCCCC(=O)*; X70 = O=C1C=CC(=O)N1CCOCCOCCOCCCC(=O)*; X76 = O=C1C=CC(=O)N1CCOCCCCCCCC(=O)*; X45 = O=C1C=CC(=O)N1CCCCC(=O)*
# Experiment: Half-lives and pharmacokinetic parameters of polypeptides vs HM-1
# Settings: in vivo
# [1] = read-out: T1/2β (half-life) (converted)
AUC(0-inf) [ng·h/mL],MRT inf [h],clearance [mL/min/kg],half-life (T1/2β (half-life)) [h],AUC(0-inf) (read-out: AUC0-∞) [ng·h/mL],clearance (read-out: CL (converted)) [mL/min/kg],MRT inf (read-out: MRT0-∞) [h],half-life [1] [h],Compound
25800 ± 8050,46.2 ± 10.2,0.645,32.03 ± 0.31,,,,,C[C@H](NC(=O)CNC(=O)[C@H](CCCNC(=N)N)NC(=O)CCCOCCOCCOCCOCCOCCOCCN1C(=O)C=CC1=O)C(=O)N[C@@H](CC(=O)O)C(=O)N[C@@H](CCCNC(=N)N)C(=O)N[C@@H](C)C(=O)NCC(=O)NCC(=O)NCC(=O)NCC(=O)N[C@@H](CCCNC(=N)N)C(=O)NCC(=O)N[C@@H](CC(=O)O)C(=O)O [X86] (X29-RGADRAGGGGRGD-OH)
29200 ± 7640,52.3 ± 11.7,0.57,36.23 ± 0.28,,,,,C[C@H](NC(=O)CNC(=O)[C@H](CCCNC(=N)N)NC(=O)CCCCCCCOCCOCCOCCOCCOCCN1C(=O)C=CC1=O)C(=O)N[C@@H](CC(=O)O)C(=O)N[C@@H](CCCNC(=N)N)C(=O)N[C@@H](C)C(=O)NCC(=O)NCC(=O)NCC(=O)NCC(=O)N[C@@H](CCCNC(=N)N)C(=O)NCC(=O)N[C@@H](CC(=O)O)C(=O)O [X83] (X9-RGADRAGGGGRGD-OH)
25700 ± 7220,46 ± 13.6,0.648,31.9 ± 0.35,,,,,C[C@H](NC(=O)CNC(=O)[C@H](CCCNC(=N)N)NC(=O)CCCCCCOCCOCCOCCOCCOCCN1C(=O)C=CC1=O)C(=O)N[C@@H](CC(=O)O)C(=O)N[C@@H](CCCNC(=N)N)C(=O)N[C@@H](C)C(=O)NCC(=O)NCC(=O)NCC(=O)NCC(=O)N[C@@H](CCCNC(=N)N)C(=O)NCC(=O)N[C@@H](CC(=O)O)C(=O)O [X82] (X14-RGADRAGGGGRGD-OH)

# Second part, the compound before the results:
Compound,AUC(0-inf) [ng·h/mL],MRT inf [h],clearance [mL/min/kg],half-life (T1/2β (half-life)) [h],AUC(0-inf) (read-out: AUC0-∞) [ng·h/mL],clearance (read-out: CL (converted)) [mL/min/kg],MRT inf (read-out: MRT0-∞) [h],half-life [1] [h]
C[C@H](NC(=O)CNC(=O)[C@H](CCCNC(=N)N)NC(=O)CCCCCCCOCCN1C(=O)C=CC1=O)C(=O)N[C@@H](CC(=O)O)C(=O)N[C@@H](CCCNC(=N)N)C(=O)N[C@@H](C)C(=O)NCC(=O)NCC(=O)NCC(=O)NCC(=O)N[C@@H](CCCNC(=N)N)C(=O)NCC(=O)N[C@@H](CC(=O)O)C(=O)O [X55] (X76-RGADRAGGGGRGD-OH),24300 ± 8150,43.5 ± 12.4,0.687,30.1 ± 0.36,,,,
C[C@H](NC(=O)CNC(=O)[C@H](CCCNC(=N)N)NC(=O)CCCCCCOCCOCCOCCN1C(=O)C=CC1=O)C(=O)N[C@@H](CC(=O)O)C(=O)N[C@@H](CCCNC(=N)N)C(=O)N[C@@H](C)C(=O)NCC(=O)NCC(=O)NCC(=O)NCC(=O)N[C@@H](CCCNC(=N)N)C(=O)NCC(=O)N[C@@H](CC(=O)O)C(=O)O [X68] (X28-RGADRAGGGGRGD-OH),31800 ± 7920,57 ± 10.3,0.523,39.52 ± 0.34,,,,
C[C@H](NC(=O)CNC(=O)[C@H](CCCNC(=N)N)NC(=O)CCCCCCCCCCCCc1ccc(N2C(=O)C=CC2=O)cc1)C(=O)N[C@@H](CC(=O)O)C(=O)N[C@@H](CCCNC(=N)N)C(=O)N[C@@H](C)C(=O)NCC(=O)NCC(=O)NCC(=O)NCC(=O)N[C@@H](CCCNC(=N)N)C(=O)NCC(=O)N[C@@H](CC(=O)O)C(=O)O [X48] (X41-RGADRAGGGGRGD-OH),29200 ± 7650,52.9 ± 12.1,0.565,36.64 ± 0.27,,,,
C[C@H](NC(=O)CNC(=O)[C@H](CCCNC(=N)N)NC(=O)CCCCCCCCCCc1ccc(N2C(=O)C=CC2=O)cc1)C(=O)N[C@@H](CC(=O)O)C(=O)N[C@@H](CCCNC(=N)N)C(=O)N[C@@H](C)C(=O)NCC(=O)NCC(=O)NCC(=O)NCC(=O)N[C@@H](CCCNC(=N)N)C(=O)NCC(=O)N[C@@H](CC(=O)O)C(=O)O [X46] (X39-RGADRAGGGGRGD-OH),31600 ± 7470,56.6 ± 11,0.527,39.23 ± 0.29,,,,
C[C@H](NC(=O)CNC(=O)[C@H](CCCNC(=N)N)NC(=O)CCCCN1C(=O)C=CC1=O)C(=O)N[C@@H](CC(=O)O)C(=O)N[C@@H](CCCNC(=N)N)C(=O)N[C@@H](C)C(=O)NCC(=O)NCC(=O)NCC(=O)NCC(=O)N[C@@H](CCCNC(=N)N)C(=O)NCC(=O)N[C@@H](CC(=O)O)C(=O)O [X4] (X45-RGADRAGGGGRGD-OH),,,,,30100 ± 7330,0.553,54 ± 10.5,37.44 ± 0.27
C[C@H](NC(=O)CNC(=O)[C@H](CCCNC(=N)N)NC(=O)CCCCCN1C(=O)C=CC1=O)C(=O)N[C@@H](CC(=O)O)C(=O)N[C@@H](CCCNC(=N)N)C(=O)N[C@@H](C)C(=O)NCC(=O)NCC(=O)NCC(=O)NCC(=O)N[C@@H](CCCNC(=N)N)C(=O)NCC(=O)N[C@@H](CC(=O)O)C(=O)O [X5] ({Hexanoyl(6-maleimido)}-RGADRAGGGGRGD-OH),,,,,27900 ± 7030,0.598,49.9 ± 13.2,34.59 ± 0.29
C[C@H](NC(=O)CNC(=O)[C@H](CCCNC(=N)N)NC(=O)CCCOCCOCCOCCN1C(=O)C=CC1=O)C(=O)N[C@@H](CC(=O)O)C(=O)N[C@@H](CCCNC(=N)N)C(=O)N[C@@H](C)C(=O)NCC(=O)NCC(=O)NCC(=O)NCC(=O)N[C@@H](CCCNC(=N)N)C(=O)NCC(=O)N[C@@H](CC(=O)O)C(=O)O [X65] (X70-RGADRAGGGGRGD-OH),31800 ± 7280,57.1 ± 12.2,0.523,39.53 ± 0.31,,,,

# From patent US20200270309A1, “MALEIMIDE GROUP-MODIFIED ANGIOGENESIS INHIBITOR HM-1 AND USE THEREOF” (NANJING ANJI BIOLOGICAL TECHNOLOGY CO., LTD, priority 2017, published 2020)
